# Laboratory results reported in US10434097B1, “Methods and compositions for treating hearing disorders” (GATEWAY BIOTECHNOLOGY, INC., priority 2015, dated 2019).
# Columns and labels:
# [1] = rats, cited from earlier work
# CBA/CaJ mice [2] = test: Early noise-induced accelerated ARHL model, ABR thresholds (Example 2); format: in vivo; settings: three months after noise exposure (4-25 kHz, 110 dB SPL, 30 min); TET three days before and two days after exposure
# Description: Currently, no FDA-approved medications against ARHL are available. Two-month old CBA/CaJ mice were exposed to octave band (4-25 kHz) noise at 110 dB SPL for 30 minutes. This is a well-established noise model for our drug screenings since the noise exposure leads to dramatic acute and permanent hearing threshold shifts 24 hours and two weeks post-exposure respectively. In addition, apparently accelerated age-related increase in the auditory brainstem response (ABR) thresholds were observed three months after the noise exposure in the control group (n=6), up to approximately 50 dB at 40 kHz. Mice treated with TET (n=5) three days before and two days after the noise exposure had only about an increase of 10 dB at 40 kHz three months after exposure (FIG. 2). […] Thus, TET treatment at a young age could prevent accelerated age-related hearing loss due to early noise exposure.
# CBA/CaJ mice [3] = test: Accelerating rotarod test, motor coordination after single injection (Example 3); format: in vivo; settings: 1 and 3 h after injection
# Description: FIG. 3 illustrates the effects of TET on mouse rotarod performance test. CBA/CaJ mice were tested before TET treatment (baseline) and one and three hours (1 h, 3 h) after TET treatment (i.p.). The latency to fall were shown as mean+/−S.E.M.
# TET effects on motor coordination were evaluated on the accelerating rotarod test. the rotating speed was increased with an acceleration rate of 10 rpm/min. The length of time that each animal was able to stay on the rod was recorded as the latency to fall. TET was dissolved in 0.1 N HCl at a concentration of 50 mg/ml, and the pH was adjusted to 6.8-7.0 before diluted in saline. Mice were injected intraperitoneally (i.p.) with saline (baseline) or different TET dosages. Rotarod performance was evaluated at 1 and 3 h after injection (FIG. 3). […] No significant gender effect was detected at either time point (p>0.1).
# CBA/CaJ mice [4] = test: NIHL, white noise 110 dB SPL 30 min, ABR TTS, repeated TET (Example 6); format: in vivo; settings: 120 mg/kg two days before and three days after noise
# Source text: The average TTS across all test frequencies was 69.7 dB for the control group, 62.9 dB for the TET-treated group (about 6.8 dB of protection).
# CBA/CaJ mice [5] = test: Prepulse inhibition (PPI), sensory gating (Example 4); format: in vivo
# Description: TET effects on sensory gating were evaluated using a prepulse inhibition (PPI) procedure. Mice were placed in a plastic restrainer situated on a plate with a pressure sensor. Any animal motion was detected by the sensor which measured its amplitude. TET at various dosages was injected (i. p.) 1 h before the test. For this study, CBA/CaJ mice were divided into four groups: control with saline injection only (n=6; 2 males), TET at 30 mg/kg (n=6; 3 males), 60 mg/kg (n=10; 5 males) and 120 mg/kg (n=6; 2 males). For all groups, the ratio between the PPI and startle amplitude was measured (FIG. 4). […] Thus, TET at 120 mg/kg has no toxic effects on sensory gating in the CBA/CaJ mouse.
# mice [6] = test: Noise-induced tinnitus model, SBAD Go/No-Go (Example 12); format: in vivo
# Source text: The SBAD method with Go/No-Go paradigm was used for behavioral test in mice. For “Go” trial animals were trained to move from one compartment to another upon presentation of a sound. For “No-Go” trial animals were trained to stay in the compartment. Otherwise they received a shock. “Go” paradigm was used to monitor motor, motivation, and memory functions while “No-Go” was used to detect tinnitus-like behavior. One ear was exposed to a 120 dB noise (4-25 kHz) for two hours for this noise-induced tinnitus model. DPOAE and ABR were measured to monitor possible hearing loss in each ear 2 weeks after noise exposure. SBAD measurements were made 2, 4, and 8 weeks after noise exposure, and also after TET (0, 30, 60, 90 mg/kg) injection.
# CBA/CaJ mice [7] = test: Accelerating rotarod, chronic TET use (Example 1); format: in vivo; settings: 120 mg/kg i.p. for five days, two-month old mice, two-way ANOVA p>0.05
# Description: CBA/CaJ mice were purchased from The Jackson Laboratory. One to five mice were housed per cage with food and water available in a noise-controlled environment on a 12-hr light/dark cycle with light onset at 6:00 a.m. TET was obtained from Sigma Chemical Co. (St. Louis, Mo.). The drug solution was injected (i.p.) for the treated groups. Control mice were given saline injection only. The amount of water/food intake was monitored daily and body weight was monitored weekly. Drug neurotoxic effects on sensory motor coordination were assessed on two-month old CBA/CaJ mice using the accelerating rotarod method. Mice were trained on the task for 5 days in order to achieve stable performance before either being treated by intraperitoneal (i.p.) injections with TET at 120 mg/kg body weight (n=5) or saline (n=6).
# mice [8] = test: Salicylate-induced tinnitus model, SBAD Go/No-Go (Example 12); format: in vivo; settings: before or after drug injections, at these dosages
# Source text: The SBAD method with Go/No-Go paradigm was used for behavioral test in mice. For “Go” trial animals were trained to move from one compartment to another upon presentation of a sound. For “No-Go” trial animals were trained to stay in the compartment. Otherwise they received a shock. “Go” paradigm was used to monitor motor, motivation, and memory functions while “No-Go” was used to detect tinnitus-like behavior. A baseline was established for each mouse over three consecutive days. The same SBAD method was repeated one hour after intraperitoneal injections of sodium salicylate (400 mg/kg), and two hours after TET injections.
# C57BL/6J mice = test: Rodent avoidance (shuttle box) test, memory (Example 5); format: in vivo
# Description: FIG. 5 illustrates the effects of TET on mouse avoidance test. C57BL/6J mice were trained to move in the shuttle box when a sound was present. After 10 days of training, the latency of their avoidance test was recored and compared between the control (0) and drug-treated groups. Data are shown as means+/−S.E.M.
# TET effects on memory were evaluated in mice with a rodent avoidance system, which consisted of two compartments of equal size (12.5 cm×20 cm×20 cm) that were connected by a door. Infrared LEDs were used to monitor rodent movement in each compartment. Sound cues were delivered via piezo tweeters in the ceiling of the compartments. Animals were trained to move from one compartment to the other upon presentation of the sound. […] The trials and responses were collected. Behavioral responses of mice with or without TET injection were measured after injection (FIG. 5). […] Again, one time administration of TET at 120 mg/kg had no significant toxic effects on memory in mice.
# [9] = higher dosages; abdominal distension, diarrhea, dry eye, itching, hyperpigmentation, mildly elevated liver enzymes; resolve after discontinuance; cited from earlier work
# [10] = single oral administration 50 mg/kg
smiles,measurement,setting,value
"COc1ccc2cc1Oc1ccc(cc1)C[C@H]1c3cc(c(OC)cc3CCN1C)Oc1c(OC)c(OC)cc3c1[C@H](C2)N(C)CC3 [TET, tetrandrine]",drug elimination from plasma,[1]; between 12.5 to 25 mg/kg,consistent with linear kinetics
same,area under the curve (AUC),[1]; [10],6279.2 ± 2411.5 ng·h/mL
same,half time (T½),[1]; [10],20.6 ± 3.7 h
same,drug concentration-curve model,[1],fits well with a two-compartment open model
same,increase of ABR threshold at 40 kHz,CBA/CaJ mice [2],~10 dB
same,rotarod performance (latency to fall) vs baseline,CBA/CaJ mice [3]; 60 mg/kg i.p.,no significant side effects
same,rotarod performance (latency to fall) vs baseline,CBA/CaJ mice [3]; 120 mg/kg i.p.,no significant side effects
same,protection (TTS difference to control),CBA/CaJ mice [4],about 6.8 dB
same,average TTS across all test frequencies,"CBA/CaJ mice [4]; 24 hours after exposure, four month-old mice (control 69.7 dB)",62.9 dB
same,"ratio between PPI and startle amplitude, pre- vs post-treatment",CBA/CaJ mice [5]; 30 mg/kg i.p. 1 h before test,No significant differences
same,"ratio between PPI and startle amplitude, pre- vs post-treatment",CBA/CaJ mice [5]; 60 mg/kg i.p. 1 h before test,No significant differences
same,"ratio between PPI and startle amplitude, pre- vs post-treatment",CBA/CaJ mice [5]; 120 mg/kg i.p. 1 h before test,No significant differences
same,"""Go"" trials (motor, motivation, memory functions)",mice [6],No significant changes
same,rotarod latency to fall vs control,CBA/CaJ mice [7],not significantly different
same,"""Go"" testing (motor, motivation, memory functions)",mice [8],No significant changes
same,avoidance test latency to cross vs control,C57BL/6J mice; 60 mg/kg,No significant difference
same,avoidance test latency to cross vs control,C57BL/6J mice; 120 mg/kg,No significant difference
same,avoidance test latency to cross vs control,"C57BL/6J mice; 180 mg/kg, one-tailed t-test p<0.05",significant increase
same,side effects in patients,[9],limited side effects
